Results from patent US11197856B2, “Bicyclic compounds and methods for their use in treating autism” (priority 2013, dated 2021).

How the values were obtained:
[1] = tested on: animals with scopolamine-induced memory impairment; experiment: Morris Water Maze (MWM) test with scopolamine-induced memory impairment; format: in vivo, Wistar rats; conditions: 30 mg/kg; daily; oral
Text: The first part of the study involved acute testing of cG-2-AllylP in the Morris Water Maze Memory (MWM) model. The MWM test is one of the most frequently used tests for assessing spatial memory in rats and is well recognized to accurately predict effects of disease and treatment on spatial memory generally. Therefore, the MWM test reflects effects of disease and treatment in human subjects. The standard procedure for MWM was followed. We used a circular swimming pool (80 cm depth×150 cm diameter) filled with opaque water, with the temperature maintained at 20° C. […] On days 1-4 of the experiment rats underwent memory acquisition trials with 6 trials (60 seconds each) in each day of testing (habituation phase). Latency to reach the platform was recorded and the daily reduction of average latency was used to measure the capability to learn where the hidden platform was. […] Experimental groups are detailed in the Table 4 below. On […], the probe MWM test was performed with the platform removed. There were 6 trials, each of maximum duration of 60s, at least 3 min rest between trials). […] Data was collected and analysed using Any-maze (v4.2) software. The data generated from behavioural tests was analysed using one-way ANOVA for determining the difference between the aged-groups. […]

[2] = tested on: synaptophysin; experiment: Synaptophysin immunohistochemical staining of hippocampus; format: in vivo, male Wistar rats; conditions: for density of synaptophysin staining: 28 days post-treatment
Experimental: Aged rats (male Wistar rats, 18-20 months old) were divided into four groups: two vehicle-treated (groups 1 and 3) and two G-2-AllylP treated (groups 2 and 4) (all groups n=6-8). Cyclic G-2-AllylP was synthesised by the Department of Medicinal Chemistry and dissolved in normal saline before the treatment. On day 1 a single dose of cyclic G-2-AllylP was given centrally (20 ng/animal, i.c.v.) to the animals in groups 2 and 4; saline was administered to groups 1 and 3. The memory tests using Novel Object Recognition Test started either on day 3 (groups 1 and 2) or 24 (groups 3 and 4) after the treatment. On the completion of the NORT, the rats were killed with an overdose of sodium pentobarbital and were perfused transcardially with normal saline followed by 10% formalin. Tissues collected at day 7 in groups 1 and 2, and at day 28 from groups 3 and 4. The brains were kept in the same fixative for a minimum of 2 days before being processed using a standard paraffin embedding procedure. Briefly, small blocks (10×10×3 mm) of tissue were fixed for up to 24 hrs. The blocks were then infiltrated and embedded with paraffin and cut in ribbons and mounted on slides. Slides were then stored until immunostaining was commenced. Synaptogenesis in brain tissue was examined using immunohistochemical staining.
Synaptophysin is a presynaptic vesicle protein. Its quantitative detection is established as a molecular marker of synaptic density.
Conventional deparaffinisation and rehydration techniques were used to allow the water-based buffers and antibodies to penetrate the tissue slices. Antigen retrieval was used only prior to AMPA receptor (GluR1) staining, i.e. the slides were placed in boiling citrate buffer and allowed to cool.
The following antibodies were used: • i) primary rabbit antibody to NMDA NR1 subunit, at 1:200 concentration in buffer, incubated for 48 hrs (Chemicon—AB1516), followed by Sigma fluorescent secondary antibody (alexaFluor 394), at 1:200 dilution, incubated for 24 hours at 40C. • ii) primary antibody to AMPA GluR1 subunit, at 1:30 concentration in buffer, incubated for 48 hrs (Chemicon—AB1504) followed by 3,3′-diaminobenzidine (DAB) at 1:200 dilution, incubated for 24 hours at 40C. • iii) Primary antibody to mSynaptophysin (Sigma—S5768), at 1:200 concentration in buffer, followed by DAB at 1:200 dilution, incubated for 24 hours at 40C. • iv) Primary antibody to rKrox-24 (Santa Cruz—catalogue number SC-189) at 1:200 concentration in the buffer, followed by anti-rabbit secondary antibody at concentration of 1:200 dilution, incubated for 24 hours at 40C. • y) Antibodies were detected using light microscopy.
We subsequently analysed effect of cG-2AllylP on the levels of synaptophysin staining in CA3 and CA1 regions of the hippocampus.

[3] = tested on: cerebellar explants; experiment: Cerebellar explants, glutamate/3-nitropropionic acid neurotoxicity; format: cell-based, Wistar rats
Experimental: Cover slips were placed into a large Petri dish and washed in 70% alcohol for 5 minutes, then washed with Millipore H2O. The cover slips were air dried, and coated with Poly-D-Lysine (1 mg/ml stock solution in PBS, 90-100 μl) for 2 hours at 34° C.
Postnatal day 8 Wistar rats were used for the study. The rats were sacrificed and placed in ice for 1 minute, decapitated and the cerebellum removed and placed on ice. Cerebellum tissue was placed in 1 ml of 0.65% glucose-supplemented PBS (10 μl 65% stock D (+)glucose/1 ml PBS) in a large Petri dish, chopped up into smaller sections and triturated with a 1 ml insulin syringe via a 23 G (0.4 mm) needle, and then squirted back into the glucose solution in the large Petri dish. The tissue was sieved through (125 μm pore size gauze) and centrifuged (2 minutes at 60 g) twice to exchange the medium into serum-free BSA-supplemented START V medium (Biochrom, Germany). The second centrifugation step was done with 1 ml of START V medium. The microexplants were reconstituted into 500 μl of START V medium and put on ice.
Two hours after PDL-coating, the slides were washed with Millipore H2O and air dried. Each slide was placed into a small Petri dish (diameter: 35 mm) and 40 μl of START V/cell suspension was added. The tissue was incubated for 2 hours at 34° C. (settlement period). START V-medium (1 ml) was then added to the Petri dish and cultivated at 34° C. in the presence of 5% CO2 in air at 100% humidity for 48 hours.
For the study, certain explant cultures were exposed to vehicle (PBS) only. In the first study (Study 1) 10 μl of toxin 1 (L-glutamate—100 mM in Millipore water; final concentration; 1 mM) and 10 μl of toxin 2 (3-nitropropionic acid—50 mM—pH 7—in Millipore water, final concentration: 0.5 mM) was applied simultaneously with the drug to be tested ([…]). In each case, the drugs were left in contact with the explants for the duration of the study.
After explants were exposed to drugs for the study period, cells were then rinsed in PBS and then fixed in increasing concentrations of paraformaldehyde (500 μl of 0.4% PFA was applied; then 1.2% PFA; then 3% PFA and finally 4% PFA (each fixation step: 2-3 minutes). Finally, the microexplants were rinsed in PBS.
Neurons in the explants were then evaluated for morphology (presence of neurites) and counted as live cells per microscopic field. Four fields displaying highest cell density were counted per cover slip and the data presented as mean±standard error of the mean (SEM); n=4 each. Statistical significance was evaluated by using the non-paired Student's t-test.

In the case of `C=CC[C@]12CCCN1C(=O)CNC2=O` [cG-2-AllylP, (8aS)-Allyl-hexahydropyrrolo[1,2-a]pyrazine-1,4-dione], the “cognitive impairment induced by scopolamine (MWM)” value [1] is reported as “significantly reversed the cognitive impairment induced by scopolamine”, the “density of synaptophysin staining” value ([2]; CA1 strata oriens and radiatum) is reported as “clear trend towards” and the “density of synaptophysin staining” value ([2]; CA3) is reported as “significant increase”. For the same molecule, the “density of pre-synaptic stain (FIG. 6)” value ([2]; CA3 region, day 24 post-treatment) was “trend to increase the density of pre-synaptic stain”, the “density of pre-synaptic stain (FIG. 7)” value ([2]; stratum oriens of CA1, day 24 post-treatment) was “trend to increase the density of the pre-synaptic stain” and the “density of pre-synaptic stain (FIG. 8)” value ([2]; stratum radiatum of CA1, day 24 post-treatment) was “increase the density of the pre-synaptic stain”. For the same molecule, the “numbers of cells having neurites” value ([3]; administered simultaneously with glutamate) was “significantly increased the numbers of cells having neurites in a dose-dependent manner” and the glutamate-induced neurotoxicity ([3]; low doses (cG-2-AllylP: 100 pm to 10 nm)) was “significant decrease in glutamate-induced neurotoxicity”.
